# Results reported in the kinase profiling compilation of Christmann-Franck et al. (2016).
# What was measured:
# Assay in all cases: KINOMEscan competition binding
# [1] = molecular target: ABL1 (human), P00519 [M351T]
# BLK (human) = BLK (human) (UniProt P51451)
# BTK (human) = BTK (human) (UniProt Q06187)
# CDK17 (human) = CDK17 (human) (UniProt Q00537)
# CDK8 (human) = CDK8 (human) (UniProt P49336)
# CHUK (human) = CHUK (human) (UniProt O15111)
# CLK1 (human) = CLK1 (human) (UniProt P49759)
# CSK (human) = CSK (human) (UniProt P41240)
# DDR1 (human) = DDR1 (human) (UniProt Q08345)
# DDR2 (human) = DDR2 (human) (UniProt Q16832)
# DYRK1A (human) = DYRK1A (human) (UniProt Q13627)
# [2] = molecular target: EIF2AK4 KD2 (human), Q9P2K8 [S808G]
# EPHA5 (human) = EPHA5 (human) (UniProt P54756)
# EPHB2 (human) = EPHB2 (human) (UniProt P29323)
# ERBB2 (human) = ERBB2 (human) (UniProt P04626)
# FES (human) = FES (human) (UniProt P07332)
# HCK (human) = HCK (human) (UniProt P08631)
# HIPK4 (human) = HIPK4 (human) (UniProt Q8NE63)
# INSRR (human) = INSRR (human) (UniProt P14616)
# LTK (human) = LTK (human) (UniProt P29376)
# MAP2K4 (human) = MAP2K4 (human) (UniProt P45985)
# MAP3K12 (human) = MAP3K12 (human) (UniProt Q12852)
# MAP3K7 (human) = MAP3K7 (human) (UniProt O43318)
# MAP3K9 (human) = MAP3K9 (human) (UniProt P80192)
# MAP4K1 (human) = MAP4K1 (human) (UniProt Q92918)
# MAPK10 (human) = MAPK10 (human) (UniProt P53779)
# MATK (human) = MATK (human) (UniProt P42679)
# MKNK1 (human) = MKNK1 (human) (UniProt Q9BUB5)
# MYO3A (human) = MYO3A (human) (UniProt Q8NEV4)
# PIK3CA (human) = PIK3CA (human) (UniProt P42336)
# PRKCD (human) = PRKCD (human) (UniProt Q05655)
# PRKCQ (human) = PRKCQ (human) (UniProt Q04759)
# PRKD1 (human) = PRKD1 (human) (UniProt Q15139)
# PTK2B (human) = PTK2B (human) (UniProt Q14289)
# RIPK2 (human) = RIPK2 (human) (UniProt O43353)
# STK33 (human) = STK33 (human) (UniProt Q9BYT3)
# STK36 (human) = STK36 (human) (UniProt Q9NRP7)
# TAOK2 (human) = TAOK2 (human) (UniProt Q9UL54)
# TNNI3K (human) = TNNI3K (human) (UniProt Q59H18)
# TSSK1B (human) = TSSK1B (human) (UniProt Q9BXA7)
# YES1 (human) = YES1 (human) (UniProt P07947)
# Sequence of CDK17 (human) (Q00537 whole entry, looked up): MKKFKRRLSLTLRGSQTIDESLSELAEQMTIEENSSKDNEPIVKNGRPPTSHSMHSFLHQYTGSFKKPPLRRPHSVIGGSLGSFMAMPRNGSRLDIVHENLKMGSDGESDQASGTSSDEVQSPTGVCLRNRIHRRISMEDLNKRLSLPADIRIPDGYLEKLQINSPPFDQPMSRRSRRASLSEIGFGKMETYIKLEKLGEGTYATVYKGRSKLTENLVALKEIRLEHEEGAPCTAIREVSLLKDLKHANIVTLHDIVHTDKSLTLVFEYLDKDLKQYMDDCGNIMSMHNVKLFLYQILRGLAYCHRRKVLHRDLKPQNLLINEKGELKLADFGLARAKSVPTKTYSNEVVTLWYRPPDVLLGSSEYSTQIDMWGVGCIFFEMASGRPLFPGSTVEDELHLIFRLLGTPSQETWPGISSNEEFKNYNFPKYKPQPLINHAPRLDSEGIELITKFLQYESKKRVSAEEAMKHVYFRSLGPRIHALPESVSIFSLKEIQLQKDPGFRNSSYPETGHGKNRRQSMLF
# Sequence of EPHA5 (human) (P54756 whole entry, looked up): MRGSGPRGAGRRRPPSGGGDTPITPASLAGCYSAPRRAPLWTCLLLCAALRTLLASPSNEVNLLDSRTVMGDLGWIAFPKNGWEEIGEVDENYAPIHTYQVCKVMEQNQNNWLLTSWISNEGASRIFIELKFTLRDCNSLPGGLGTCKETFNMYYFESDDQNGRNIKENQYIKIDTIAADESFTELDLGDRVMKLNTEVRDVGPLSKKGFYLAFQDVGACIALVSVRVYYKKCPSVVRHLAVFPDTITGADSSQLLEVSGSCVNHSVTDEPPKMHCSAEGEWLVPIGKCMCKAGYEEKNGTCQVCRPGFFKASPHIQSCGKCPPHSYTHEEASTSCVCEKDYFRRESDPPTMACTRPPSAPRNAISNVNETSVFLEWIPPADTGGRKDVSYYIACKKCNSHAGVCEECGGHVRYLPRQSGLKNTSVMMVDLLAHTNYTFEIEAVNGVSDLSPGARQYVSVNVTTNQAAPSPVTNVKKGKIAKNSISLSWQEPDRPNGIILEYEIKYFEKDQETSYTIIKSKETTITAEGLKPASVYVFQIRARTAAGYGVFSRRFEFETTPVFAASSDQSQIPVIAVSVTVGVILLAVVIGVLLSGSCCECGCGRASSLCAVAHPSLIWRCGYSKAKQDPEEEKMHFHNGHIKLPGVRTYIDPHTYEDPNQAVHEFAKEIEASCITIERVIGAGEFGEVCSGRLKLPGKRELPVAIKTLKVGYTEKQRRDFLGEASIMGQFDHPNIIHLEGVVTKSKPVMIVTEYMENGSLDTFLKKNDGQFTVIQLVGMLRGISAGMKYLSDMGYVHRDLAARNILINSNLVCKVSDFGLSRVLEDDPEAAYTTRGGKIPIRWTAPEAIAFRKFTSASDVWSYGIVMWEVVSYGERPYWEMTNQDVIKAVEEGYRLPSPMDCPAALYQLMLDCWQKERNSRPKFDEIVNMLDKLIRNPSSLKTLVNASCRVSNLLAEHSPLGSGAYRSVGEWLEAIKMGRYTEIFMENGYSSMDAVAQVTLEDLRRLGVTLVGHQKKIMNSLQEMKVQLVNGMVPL
# Sequence of MATK (human) (P42679 whole entry, looked up): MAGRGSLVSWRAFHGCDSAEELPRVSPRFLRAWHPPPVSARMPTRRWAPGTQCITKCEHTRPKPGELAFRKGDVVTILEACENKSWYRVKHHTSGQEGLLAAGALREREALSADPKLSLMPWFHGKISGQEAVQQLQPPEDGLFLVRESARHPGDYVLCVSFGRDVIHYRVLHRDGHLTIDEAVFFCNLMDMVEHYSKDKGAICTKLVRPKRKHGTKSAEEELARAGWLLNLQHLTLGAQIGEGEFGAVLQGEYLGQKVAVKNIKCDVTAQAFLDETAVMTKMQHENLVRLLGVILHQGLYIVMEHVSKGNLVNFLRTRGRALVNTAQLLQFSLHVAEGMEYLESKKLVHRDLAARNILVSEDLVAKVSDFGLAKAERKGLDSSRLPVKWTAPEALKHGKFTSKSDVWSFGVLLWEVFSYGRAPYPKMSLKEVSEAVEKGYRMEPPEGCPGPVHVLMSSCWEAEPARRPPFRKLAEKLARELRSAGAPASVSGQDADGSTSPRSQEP
# Sequence of TSSK1B (human) (Q9BXA7 whole entry, looked up): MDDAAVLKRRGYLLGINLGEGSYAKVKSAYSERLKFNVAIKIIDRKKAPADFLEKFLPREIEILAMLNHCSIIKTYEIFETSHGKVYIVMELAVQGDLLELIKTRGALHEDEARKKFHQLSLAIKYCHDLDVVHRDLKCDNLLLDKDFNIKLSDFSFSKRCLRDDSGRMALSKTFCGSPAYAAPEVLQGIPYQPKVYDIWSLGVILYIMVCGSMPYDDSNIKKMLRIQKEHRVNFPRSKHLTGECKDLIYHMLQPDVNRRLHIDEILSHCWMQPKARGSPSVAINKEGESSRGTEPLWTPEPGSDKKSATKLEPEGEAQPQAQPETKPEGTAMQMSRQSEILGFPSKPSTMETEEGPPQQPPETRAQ
# Sequence of CHUK (human) (O15111 whole entry, looked up): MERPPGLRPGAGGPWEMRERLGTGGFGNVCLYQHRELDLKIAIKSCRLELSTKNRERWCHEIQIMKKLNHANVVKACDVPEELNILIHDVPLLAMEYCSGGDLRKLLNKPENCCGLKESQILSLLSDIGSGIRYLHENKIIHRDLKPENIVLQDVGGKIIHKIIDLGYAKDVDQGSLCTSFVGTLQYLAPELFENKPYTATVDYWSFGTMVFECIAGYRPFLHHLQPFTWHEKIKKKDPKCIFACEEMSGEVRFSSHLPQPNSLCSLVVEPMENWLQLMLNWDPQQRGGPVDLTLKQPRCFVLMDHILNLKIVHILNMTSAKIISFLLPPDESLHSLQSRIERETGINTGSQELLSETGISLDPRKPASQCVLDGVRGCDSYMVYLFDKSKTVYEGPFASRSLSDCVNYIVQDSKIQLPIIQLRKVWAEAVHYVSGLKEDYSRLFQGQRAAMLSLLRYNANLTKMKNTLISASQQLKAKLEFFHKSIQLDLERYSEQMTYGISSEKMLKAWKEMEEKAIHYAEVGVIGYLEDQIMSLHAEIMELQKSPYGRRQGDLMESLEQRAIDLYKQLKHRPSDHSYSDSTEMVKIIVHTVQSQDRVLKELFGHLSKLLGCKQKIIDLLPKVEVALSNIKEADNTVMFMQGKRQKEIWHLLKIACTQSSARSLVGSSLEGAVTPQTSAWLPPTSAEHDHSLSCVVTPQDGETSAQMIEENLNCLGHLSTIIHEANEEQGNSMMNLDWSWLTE
# Sequence of MAPK10 (human) (P53779 whole entry, looked up): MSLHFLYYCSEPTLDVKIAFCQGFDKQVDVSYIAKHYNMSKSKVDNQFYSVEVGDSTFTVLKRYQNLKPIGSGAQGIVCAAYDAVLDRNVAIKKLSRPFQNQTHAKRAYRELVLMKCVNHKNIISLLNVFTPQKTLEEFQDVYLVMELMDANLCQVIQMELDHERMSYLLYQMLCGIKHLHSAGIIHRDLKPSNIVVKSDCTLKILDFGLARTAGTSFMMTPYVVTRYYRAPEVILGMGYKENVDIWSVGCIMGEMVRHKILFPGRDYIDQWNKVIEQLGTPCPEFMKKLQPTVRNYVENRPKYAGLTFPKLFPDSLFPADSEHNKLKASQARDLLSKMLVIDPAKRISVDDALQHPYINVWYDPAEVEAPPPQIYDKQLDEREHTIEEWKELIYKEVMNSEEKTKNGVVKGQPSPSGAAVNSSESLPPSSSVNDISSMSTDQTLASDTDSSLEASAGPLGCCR
# Sequence of MAP4K1 (human) (Q92918 whole entry, looked up): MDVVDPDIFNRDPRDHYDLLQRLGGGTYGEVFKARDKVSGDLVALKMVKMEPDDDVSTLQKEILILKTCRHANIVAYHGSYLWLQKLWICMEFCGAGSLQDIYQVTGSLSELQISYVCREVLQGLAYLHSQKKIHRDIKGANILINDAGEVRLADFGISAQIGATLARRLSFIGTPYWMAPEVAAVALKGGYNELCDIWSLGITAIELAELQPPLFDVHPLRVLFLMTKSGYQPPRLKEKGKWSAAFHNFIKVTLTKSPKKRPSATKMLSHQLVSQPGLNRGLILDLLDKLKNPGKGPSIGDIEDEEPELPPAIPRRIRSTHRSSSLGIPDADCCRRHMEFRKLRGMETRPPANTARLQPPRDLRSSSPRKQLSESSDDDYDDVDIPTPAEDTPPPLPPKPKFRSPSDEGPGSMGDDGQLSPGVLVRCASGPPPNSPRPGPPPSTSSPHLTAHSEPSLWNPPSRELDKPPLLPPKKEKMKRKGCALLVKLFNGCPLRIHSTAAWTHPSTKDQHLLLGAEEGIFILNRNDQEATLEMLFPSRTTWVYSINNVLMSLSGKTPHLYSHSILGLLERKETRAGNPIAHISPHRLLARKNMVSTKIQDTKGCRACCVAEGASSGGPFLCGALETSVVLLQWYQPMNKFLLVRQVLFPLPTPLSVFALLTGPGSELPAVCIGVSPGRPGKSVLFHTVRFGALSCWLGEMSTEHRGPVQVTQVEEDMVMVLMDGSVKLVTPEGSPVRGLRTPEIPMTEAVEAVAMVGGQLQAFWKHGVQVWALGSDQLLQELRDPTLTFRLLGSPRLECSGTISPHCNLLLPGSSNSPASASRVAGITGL
# Sequence of MAP2K4 (human) (P45985 whole entry, looked up): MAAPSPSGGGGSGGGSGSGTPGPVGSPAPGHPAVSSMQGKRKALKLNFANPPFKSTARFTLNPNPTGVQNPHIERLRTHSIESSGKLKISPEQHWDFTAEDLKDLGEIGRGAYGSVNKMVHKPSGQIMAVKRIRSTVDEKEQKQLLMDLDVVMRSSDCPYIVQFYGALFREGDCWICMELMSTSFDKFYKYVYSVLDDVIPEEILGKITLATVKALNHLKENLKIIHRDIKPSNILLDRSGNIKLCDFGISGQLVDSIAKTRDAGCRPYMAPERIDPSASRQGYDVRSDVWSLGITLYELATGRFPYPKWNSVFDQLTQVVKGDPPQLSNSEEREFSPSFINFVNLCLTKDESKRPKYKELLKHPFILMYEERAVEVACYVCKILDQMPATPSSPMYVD
compound,measurement,setting,value
COc1cc2ncnc(Oc3cccc(NC(=O)Nc4cc(C(C)(C)C(F)(F)F)on4)c3)c2cc1OC,Kd,[1],0.0032 µM
same,Kd,BLK (human),0.0076 µM
same,Kd,BTK (human),9 µM
same,Kd,CDK17 (human),0.63 µM
same,Kd,CDK8 (human),1.1 µM
same,Kd,CHUK (human),0.17 µM
same,Kd,CLK1 (human),10 µM
same,Kd,CSK (human),0.7 µM
same,Kd,DDR1 (human),0.0006 µM
same,Kd,DDR2 (human),0.0054 µM
same,Kd,DYRK1A (human),35 µM
same,Kd,[2],4.4 µM
same,Kd,EPHA5 (human),0.056 µM
same,Kd,EPHB2 (human),0.04 µM
same,Kd,ERBB2 (human),0.24 µM
same,Kd,FES (human),0.11 µM
same,Kd,HCK (human),0.013 µM
same,Kd,HIPK4 (human),0.034 µM
same,Kd,INSRR (human),31 µM
same,Kd,LTK (human),1.2 µM
same,Kd,MAP2K4 (human),18 µM
same,Kd,MAP3K12 (human),35 µM
same,Kd,MAP3K7 (human),0.083 µM
same,Kd,MAP3K9 (human),1.5 µM
same,Kd,MAP4K1 (human),0.22 µM
same,Kd,MAPK10 (human),0.088 µM
same,Kd,MATK (human),26 µM
same,Kd,MKNK1 (human),2.6 µM
same,Kd,MYO3A (human),15 µM
same,Kd,PIK3CA (human),27 µM
same,Kd,PRKCD (human),1.2 µM
same,Kd,PRKCQ (human),13 µM
same,Kd,PRKD1 (human),7.3 µM
same,Kd,PTK2B (human),6.6 µM
same,Kd,RIPK2 (human),0.016 µM
same,Kd,STK33 (human),18 µM
same,Kd,STK36 (human),4.7 µM
same,Kd,TAOK2 (human),1.6 µM
same,Kd,TNNI3K (human),0.028 µM
same,Kd,TSSK1B (human),26 µM
same,Kd,YES1 (human),0.16 µM
